Test results from PubChem BioAssay (NCI).
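Protocol summary: plate cells (96-well), add compound at 5 concentrations, incubate 48 h, interpolate endpoints linearly. The concentration for 50% growth inhibition is given as GI50. TGI marks complete inhibition of growth.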 *1 amine or outer side, *2 acyl side, *3 side chain or, on linkers, in order; H or OH if unused. Where a SMILES comes first, the peptide text is derived from it. Bridges are numbered along the chain shown (N, C = ends). Roman numbers before positions name the chains, in order. [ ]: non-standard residue; d: D form. The star is where a group is joined. Actinocin(9to1) = Cc1c2oc3c(C)ccc(C(=O)[*:1])c3nc-2c(C(=O)[*:2])c(N)c1=O; NMeV = CN[CH](C(=O)O)C(C)C; Cbz = O=C(OCc1ccccc1)*; Boc = CC(C)(C)OC(=O)*; OBn = c1ccc(CO*)cc1; Sar = CNCC(=O)O

Key:
Assay in all cases: NCI anticancer screen, dose series, 48 h
SNB-19 CNS = tested on: SNB-19 CNS
UO-31 renal = tested on: UO-31 renal
OVCAR-4 ovarian = tested on: OVCAR-4 ovarian
NCI-H226 lung = tested on: NCI-H226 lung
OVCAR-8 ovarian = tested on: OVCAR-8 ovarian
ACHN renal = tested on: ACHN renal
HCC-2998 colon = tested on: HCC-2998 colon
HOP-92 NSCLC = tested on: HOP-92 NSCLC
786-0 renal = tested on: 786-0 renal
SF-539 CNS = tested on: SF-539 CNS
EKVX NSCLC = tested on: EKVX NSCLC

SMILES	TGI (SNB-19 CNS) [µM]	TGI (UO-31 renal) [µM]	TGI (OVCAR-4 ovarian) [µM]	TGI (NCI-H226 lung) [µM]	TGI (OVCAR-8 ovarian) [µM]	TGI (ACHN renal) [µM]	TGI (HCC-2998 colon) [µM]	TGI (HOP-92 NSCLC) [µM]	TGI (786-0 renal) [µM]	TGI (SF-539 CNS) [µM]	TGI (EKVX NSCLC) [µM]	GI50 (SNB-19 CNS) [µM]	GI50 (OVCAR-4 ovarian) [µM]	GI50 (NCI-H226 lung) [µM]	GI50 (OVCAR-8 ovarian) [µM]	GI50 (ACHN renal) [µM]	GI50 (HCC-2998 colon) [µM]	GI50 (HOP-92 NSCLC) [µM]	GI50 (UO-31 renal) [µM]	GI50 (SF-539 CNS) [µM]
Cc1cc(-c2nc3ccccc3s2)ccc1NC(=O)[C@H](C)N	28.7	19.1	26.2	13.4	37.4	27.5	23.9	35.5	23.7											
O=c1cc(N2CCCC2)[nH]c(=O)n1-c1cccc(C(F)(F)F)c1	> 100		> 100	> 100	> 100	> 100	> 100	> 100	> 100	> 100	> 100									
O=C(c1ccccc1)c1ccc2nc(-c3c(Cl)c(Cl)c(Cl)c(Cl)c3C(=O)N/N=C/c3ccccc3)[nH]c2c1	> 100	> 100	83.5	79.8	> 100	49.2		> 100	73.7	> 100	60.2									
C#CC(F)(F)[C@]1(O)CC[C@H]2[C@@H]3CCC4=CC(=O)CCC4=C3[C@@H](c3ccc(C(C)=O)cc3)C[C@@]21C	> 100		97.1	71.3	> 90.6	97	> 100	0.356				28.4	18.9	21.7	21.1	10.1	31.2	0.0456		
CCc1ccc2[nH]c(O)c(-c3[nH]c4ccccc4c3N=O)c2c1	31.6	12	21.8	62.5	32.2	14.7	8.52		18.9		20									
CCOC(=O)CNC(=O)C(C)NC(=O)C(NC(=O)CC(c1ncc[nH]1)c1ncc[nH]1)C(C)CC (stereo unspecified)	> 100	> 100	> 100		> 100	> 100	> 100	> 100	> 100	> 100	> 100									
Cc1nc2ccc(S(=O)(=O)O)cc2c(=O)n1-c1ccc(C(=O)NN2C(=O)C(Cl)C2c2ccccc2O)cc1 (stereo unspecified)	> 100	> 100	> 100	> 100	> 100	> 100		> 100	> 100	> 100	> 100									
O=C1/C(=C/c2ccccc2[N+](=O)[O-])N=C(c2ccccc2)N1C1Nc2cc3c(cc2S1)NC(N1C(=O)/C(=C/c2ccccc2[N+](=O)[O-])N=C1c1ccccc1)S3 (stereo unspecified)		> 100	> 100	> 100	> 100	> 100	38.1	> 100	79.6	> 100	> 100									
Cc1cn(CC2=NCC(C)(C)N2)c(=O)[nH]c1=O	> 100	> 100		> 100	> 100	> 100	> 100	> 100	> 100		> 100									
Cc1c2oc3c(C)ccc(C(=O)NC4C(=O)NC(C(C)O)C(=O)N5CCCC5C(=O)N(C)CC(=O)N(C)C(C(C)C)C(=O)OC4C)c3nc-2c(C(=O)NC2C(=O)NC(C(C)O)C(=O)N3CCCC3C(=O)N(C)CC(=O)N(C)C(C(C)C)C(=O)OC2C)c(N)c1=O (stereo unspecified) (I: TTP[Sar][NMeV] / II: TTP[Sar][NMeV]; ester I:1-I:C, II:1-II:C; linker I:N-II:N via Actinocin(9to1); configuration not given here)	> 100	19.6	> 63.3	0.803	> 82.4	10.9	> 30.3			1.44	> 42.2									
CC[C@H](C)[C@H]1NC(=O)[C@@H](NC(=O)[C@@H](CC(C)C)N(C)CC2CCCN2C(=O)C(C)=O)[C@@H](C)OC(=O)[C@H](Cc2ccc(OC)cc2)N(C)C(=O)C2CCCN2C(=O)[C@H](CC(C)C)NC(=O)[C@@H](C)C(=O)[C@H](C(C)C)OC(=O)C[C@@H]1O (stereo partly specified)	0.0115	0.0862	0.00687	0.0809	0.0474	0.0389	0.00958	0.0292	0.0118		0.0509									
COC(=O)/C=C/c1cc(O)c2c(c1)[C@H](C(=O)OC)[C@@H](c1ccc(O)c(O)c1)O2		> 63.5	> 100	> 22.7	4.37	> 85.2	54.6	> 94	> 100		> 85									
CNC(=O)c1cc(NC(=O)N(CCC#N)CCN(C(=O)N[C@@H](Cc2ccccc2)C(=O)N[C@@H](CC(C)C)C(=O)NC)c2ccccc2)ccc1OC	> 100	> 100	> 100	> 100	> 100	> 100		71.7	> 100	> 66.3	> 100									
CC(NC(=O)C(NC(=O)OC(C)(C)C)C(C)C)C(=O)N1CCCC1C(=O)NCC(=O)NC(C(=O)NCC(=O)OCc1ccccc1)C(C)C (stereo unspecified) (Boc-VAPGVG-OBn; configuration not given here)	> 100	> 100	> 100		> 100	> 100	> 100	> 100	> 100	> 100	> 100									
CC(=O)O[C@]12CCCC1C1(O)C(O)CCCC12 (stereo partly specified)	> 100	> 100	> 100	> 100	> 100	> 100			> 100		> 100									
COc1ccc2c(c1)n([O-])c(C#N)c(N1CCN(c3ccc([N+](=O)[O-])cc3)CC1)[n+]2=O	> 100		> 100	> 100	> 100	> 100	> 100		> 100	6.23	> 100									
CN(C)CCSC(=Nc1ccccc1)N1CCCCC1	> 100	52.5	40.2	24.5	39.7	30.5		27.5	30	38.1										
COc1ccc(N=N/C(=N/NC(=O)c2ccccc2)c2ccc(N(CCC#N)CCC#N)cc2C)cc1	> 100	> 100	> 100	> 100	> 100	> 100	> 100		> 100	70	> 100									
O=[Se](=O)c1ccccc1.O=[Se](=O)c1ccccc1.[Cu]	31.3	32.5	34.5	39.6	30.2		32.9	37.3		30.6		17.4	18.7	21.7	15.9		16.6	21.4	18	16.4

SMILES	TGI (SNB-19 CNS) [µM]	TGI (UO-31 renal) [µM]	TGI (OVCAR-4 ovarian) [µM]	TGI (NCI-H226 lung) [µM]	TGI (OVCAR-8 ovarian) [µM]	TGI (ACHN renal) [µM]	TGI (HCC-2998 colon) [µM]	TGI (HOP-92 NSCLC) [µM]	TGI (786-0 renal) [µM]	TGI (SF-539 CNS) [µM]	TGI (EKVX NSCLC) [µM]	GI50 (SNB-19 CNS) [µM]	GI50 (OVCAR-4 ovarian) [µM]	GI50 (NCI-H226 lung) [µM]	GI50 (OVCAR-8 ovarian) [µM]	GI50 (ACHN renal) [µM]	GI50 (HCC-2998 colon) [µM]	GI50 (HOP-92 NSCLC) [µM]	GI50 (UO-31 renal) [µM]	GI50 (SF-539 CNS) [µM]
Cc1cccc(NC(=O)C(=O)C(C(=O)c2ccccc2F)C2OC(=O)c3ccccc32)c1Cl (stereo unspecified)	> 100	> 100	> 100	62.3	50.6	> 100	43.7	> 100		40.4	> 100									
CCOC(=O)C(=Cc1ccc(C(=O)OC)cc1)C(=O)OCC	6.47		14	4.45	10.3	3.48	12.1	4.02	3.15	3.17	26.9									
[N-]=[N+]=NCc1cccc(Nc2cc(=O)[nH]c(=O)[nH]2)c1	> 100	> 100		> 100	> 100	> 100	> 100	> 100	> 100	> 100	> 100									
CSc1c(C#N)c(=O)[nH]c2n[nH]c(C)c12	> 100	> 100	> 100	> 100	> 100		> 100		> 100	> 100	> 100									
COc1cc(/C=C2\N=C(c3ccccc3)N(c3nc4c(OC)ccc(OC)c4s3)C2=O)cc(OC)c1OC	> 100	> 100	> 100		> 100	> 100	> 100	> 100	> 100		> 100									
O=S1(=O)c2ccccc2C(=NO)c2ccccc21		> 100	> 100	> 100	> 100	> 100	> 100	> 100	> 100	> 100	> 100									
[N-]=[N+]=CC(=O)OCC1SCCCS1	> 100	> 100	> 100	> 100		> 100	> 100	> 100	> 100		> 100									
COc1cccc(Cc2c3cc(OC)ccc3cc[n+]2C)c1	> 100	> 100	> 100		> 100	> 100	> 100		> 100		> 100									
COc1ccc(-c2c(N)n(-c3cccc(C(=O)O)c3)c(=O)c3cc([N+](=O)[O-])ccc23)cc1	> 100	> 100	> 100	> 100	> 100	> 100	> 100		> 100	> 100	> 100									
COC(=O)C(Cc1ccc(O)cc1)NC(=O)C(CC(=O)OCc1ccccc1)NC(=O)OCc1ccccc1 (stereo unspecified) (Cbz-Asp(OBn)-Tyr-OMe; configuration not given here)	34.1	49		43.2	35.6	34.8	31.5	> 100	32.1		46.7									
c1ccc2c(c1)CCc1cc3cc4c(nc3nc1-2)-c1ccccc1CC4	> 100	> 100		> 100	> 100	> 100	> 100		> 100	> 100	> 100									
Oc1ccc(SCc2cc(O)c(O)c(O)c2)cc1	> 100	> 100		52.1	49.6	> 100		> 100	> 100	> 100	> 100									
C(=C\c1ccccc1)/C=N/c1nc2cc3sc(/N=C/C=C/c4ccccc4)nc3cc2s1	> 100	> 100	> 100		> 100	> 100	> 100	> 100	> 100	> 100	> 100									
O=c1[nH]nc(-c2ccccc2)n1/N=C/c1c(O)ccc2ccccc12	85.4	> 100	45.7		> 100	> 100	> 100	> 100	> 100	> 100	> 100									
O=C(CCCCCCCCC(=O)N1C(=O)CC(=O)N(c2cccc(Cl)c2)C1=S)N1C(=O)CC(=O)N(c2cccc(Cl)c2)C1=S	> 100	> 100	> 100		> 100	> 100	> 100	51.1	> 100		> 100									
COC(=O)n1c(=O)n(-c2ccccc2)c(=O)n1C(=O)OC	> 100	> 100	> 100	> 100	> 100		> 100		> 100	> 100	> 100									
O=c1c(C=Nc2ccc([N+](=O)[O-])cc2)c(O)n(-c2ccccc2)c(=O)n1-c1ccccc1	> 100	> 100	> 100	> 100	> 100	> 100	> 100	> 100	> 100		> 100									
Cc1ccc(N2CCc3c(C)c(C#N)c4nc5ccccc5n4c32)cc1	> 100	> 100	> 100	> 100	> 100	> 100	> 100	57.5	> 100	> 100										
CN(C)Cc1cc(O)c(O)c(CN(C)C)c1	> 100	> 100	> 100	> 100	> 100	> 100	81.8	> 100	> 100		71.5									
